# Laboratory results: article PMC10215749, “Determination of the affinity constants for phage display albumin-binding peptides” (PeerJ, 2023)
# B1: HSA-3 peptide fused phage (peptide)
# peptide: AESQKLN
# notes: DNA GCGGAGAGTTAGAAGCTTAAT (TAG printed as Q); Measured as the peptide on whole phage, not as a free peptide; source: M13 phage clone from the Ph.D.-7 library, amplified in E. coli ER2738, purified (PEG/NaCl precipitation)
# Key:
# HSA [1] = biological target: T1, HSA (Homo sapiens, UniProt P02768); test: Relative dissociation constant of peptide-fused phage by double-reciprocal plot of phage titers
# Method: A single E. coli ER2738 colony was inoculated into 10 mL LB-Tet medium and incubated at 37 °C by shaking until mid-log phase (OD600∼0.5) for phage titering. Phage solutions were diluted 10-fold serially in TBS (50 mM Tris–HCl, pH 7.5, 150 mM NaCl) and aliquots of these solutions (50 µL) were added to a suspension of the prepared ER2738 cells (450 µL), 1 for each phage dilution. The phage-infected ER2738 cells (100 µL) were then poured from each dilution tube to an LB-Tet-IPTG-X-gal plate and the plates were incubated overnight at 37 °C. We determined the number of phage particles contained in the original stock phage culture by counting the number of plaques formed on the seeded agar plate and multiplying this by the dilution factor.
# The concentration of bound phage [ ϕT] and free phage [ ϕ] can be calculated from the mass conservation equation, where [ ϕ] T is the total concentration of input phage and the concentration of target bound phage [ ϕT] can be estimated by eluted phage concentration [ ϕ] e, which is very much less than [ ϕ] T in our experiment. (6) ϕ=ϕt−ϕe≈ϕt (7) ϕT≈ϕe.
# A double reciprocal plot of phage-target affinity measurement is generated by plotting 1/[ ϕ] e as a function of 1/[ ϕ] t. The slope is Kd/[T], the intercept on the vertical axis is 1/[T], and the intercept on the horizontal axis is −1/ Kd. […] (8) 1/ϕe=Kd/Tϕt+1/T.
# Then TBST buffer wash the unbound phages, followed by the elution of the bound phages to the well with glycine-HCl, pH2.2. The concentration of input and eluted phage was quantitated by titration. […] These phage-fused peptides were subjected to DNA sequencing and their corresponding heptapeptide sequences are also shown in Table 3.
# HSA [2] = biological target: T1, HSA; test: Phage clone binding to HSA, specificity ratio by phage titer; set-up: purchased Sigma; conditions: for Blank control phage titre: single clone eluted from blank control well; for Blank control phage titre / Elute phage titre (HSA-coated well): input 1.16 × 10^12 (HSA-3), 1.34 × 10^13 (HSA-4) pfu/ml; for Elute phage titre (HSA-coated well): single clone
# Method: After rapid washing three times with TBST (TBS + 0.1% [v/v] Tween-20), 100 µL of the diluted phage library (∼2 × 10^11 phage) was added to the well of the coated plate and rocked gently to let them absorb for 60 min. Following 10 washes with TBST, the bound phages were eluted with 0.2 M Gly-HCl, pH 2.2. The 100 µL that was eluted was neutralized with 15 µL Tris–HCl (1 M, pH 9.1) immediately. A small amount of eluted phage was titered as described above and the rest of elutes were added to 20 ml ER2738 culture (OD 600∼0.5) to be amplified 4.5 h at 37 °C for the next round.
# To evaluate the efficiency of the phage display panning procedure, we created two selection criteria: the recovery yield and the specificity ratio. The recovery yield is the ratio of the titer of the eluted phage to the input phage. The specificity ratio is the ratio of the titer of the eluted phage from the target coated well to the blank control well. Recovery Y ield%=Elutephagetiterfromtarget/Inputphagetiter×100 Specificity Ratio=Elutephagetiterfromtarget/Elutephagetiterfromblank.
# The amplified culture of phage clones was transferred to a 50 mL centrifuge tube and centrifuged for 10 min at 10,000 rpm at 4 °C with a high-speed refrigerated centrifuge (Himac CR21G). The supernatant was decanted to a fresh tube and precipitated by 1/5 volume of PEG/-NaCl (20% [w/v] Polyethylene Glycol–8000, 2.5 M NaCl) at 4 °C overnight and centrifuged for 20 min at 10,000 rpm. The supernatant was discarded and the sediment containing phage was suspended with TBS. To precipitate the phage again, a 1/5 volume of PEG/NaCl was added to the culture and it was stored at 4 °C for at least 60 min. The PEG suspension was centrifuged for 10 min at 10,000 rpm, the phage precipitate was suspended in 500 µL of TBS.
# The sequences of HSA-binding peptides were determined by DNA sequencing of the selected phage using −96 gIII sequencing primer 5′-[…]-3′ in the Ph.D-7 phage library.
# The specificity ratio was used to determine if positive phage clones with high HSA-binding affinity were isolated. […] We tested the selected clones with significant specificity ratios as potential HSA-binders, after screening many phage clones that consisted of microplate-surface-binding phages, the specific and non-specific target-binding phages, from the target-binding plate as shown in Table 3. The two selected clones, HSA-3 and HSA-4, show specificity ratios of 7.4 and 9.8, respectively, confirming that our method in the panning process is effective.
# Human serum albumin [3] = biological target: T2, Human serum albumin (human, UniProt P02768 25-609); test: phage binding to coated microplate, read by phage titer (specificity ratio); HSA coated in microplate wells, no blocking protein; purified phage clone added, washed with TBST, eluted with Gly-HCl pH 2.2 and titered; ratio of the eluted titer from the HSA well to that from a blank well; conditions: both partners purified
# T2 construct: human serum albumin (HSA), bought from Sigma, coated on microplate wells; also called HSA; HSA target; source: bought: Sigma
# Human serum albumin [4] = biological target: T2, Human serum albumin; test: phage binding to coated microplate, read by phage titer (double reciprocal plot); constant HSA coated in microtiter wells, varying input phage until equilibrium, TBST wash, elution with glycine-HCl pH 2.2, input and eluted phage titered; relative dissociation constant = slope/intercept of 1/eluted against 1/input; conditions: both partners purified
molecule,measurement,setting,value
ITPLPLR [HSA-4],Elute phage titer Φe,"HSA [1]; HSA-4, sample 1, input 5.90×10^13 pfu/L",5.0×10^6 pfu/L
same,Elute phage titer Φe,"HSA [1]; HSA-4, sample 2, input 3.88×10^13 pfu/L",4.32×10^6 pfu/L
same,Elute phage concentration [Φ]e,"HSA [1]; HSA-4, sample 2, input concentration printed 1.55×10^7 mol/L",1.4e-14 mol/L
same,Elute phage titer Φe,"HSA [1]; HSA-4, sample 3, input 2.93×10^13 pfu/L",2.87×10^6 pfu/L
same,Elute phage concentration [Φ]e,"HSA [1]; HSA-4, sample 3, input concentration printed 2.05×10^7 mol/L",2.1e-14 mol/L
same,Elute phage titer Φe,"HSA [1]; HSA-4, sample 4, input 2.48×10^13 pfu/L",2.8×10^6 pfu/L
same,Elute phage concentration [Φ]e,"HSA [1]; HSA-4, sample 4, input concentration printed 2.44×10^7 mol/L",2.2e-14 mol/L
same,Elute phage titer Φe,"HSA [1]; HSA-4, sample 5, input 2.10×10^13 pfu/L",2.16×10^6 pfu/L
same,Elute phage concentration [Φ]e,"HSA [1]; HSA-4, sample 5, input concentration printed 2.86×10^7 mol/L",2.8e-14 mol/L
same,Kd,"HSA [1]; read-out: Relative dissociation constant, phage-fused peptide vs immobilized HSA, double-reciprocal plot 1/[Φ]e vs 1/[Φ]t, linear regression, elution glycine-HCl pH 2.2",388 nM
same,Blank control phage titre,HSA [2],5.22 × 10^5 pfu/ml
same,Elute phage titre (HSA-coated well),HSA [2],5.12 × 10^6 pfu/ml
same,Specificity ratio,HSA [2]; titer of eluted phage from target coated well / from blank control well,9.8
AESQKLN [HSA-3],Elute phage titer Φe,"HSA [1]; HSA-3, sample 1, input 1.13×10^14 pfu/L",7.94×10^6 pfu/L
same,Elute phage titer Φe,"HSA [1]; HSA-3, sample 2, input 5.8×10^13 pfu/L",7.5×10^6 pfu/L
same,Elute phage concentration [Φ]e,"HSA [1]; HSA-3, sample 2, input concentration printed 1.03×10^7 mol/L",7.98e-13 mol/L
same,Elute phage titer Φe,"HSA [1]; HSA-3, sample 3, input 3.36×10^13 pfu/L",5.68×10^6 pfu/L
same,Elute phage concentration [Φ]e,"HSA [1]; HSA-3, sample 3, input concentration printed 1.79×10^7 mol/L",1.06e-14 mol/L
same,Elute phage concentration [Φ]e,"HSA [1]; HSA-3, sample 4",2.39e-14 mol/L
same,Elute phage titer Φe,"HSA [1]; HSA-3, sample 4, input 2.16×10^13 pfu/L",2.52×10^6 pfu/L
same,Elute phage titer Φe,"HSA [1]; HSA-3, sample 5, input 1.52×10^13 pfu/L",2×10^6 pfu/L
same,Elute phage concentration [Φ]e,"HSA [1]; HSA-3, sample 5, input concentration printed 3.99×10^7 mol/L",3.03e-14 mol/L
same,Blank control phage titre,HSA [2],1.24 × 10^5 pfu/ml
same,Elute phage titre (HSA-coated well),HSA [2],9.16 × 10^5 pfu/ml
B1,specificity ratio,Human serum albumin [3],7.4
same,Kd,Human serum albumin [4],529 nM
